The results in this text go back to patent US20110136728A1, “METHODS OF INCREASING BONE FORMATION USING LEPTIN-RELATED PEPTIDES” (priority 2009, published 2011).

Molecules are shown by their SMILES. “Also recorded” adds a separate entry of the source. Non-standard residues stand in square brackets, D forms with d. Residues, ends and D or L forms follow the SMILES beside them.

The experiment deals with male C57BL/6J wild type mice. As to the kind of experiment: Oral delivery (gavage) in ad libitum fed wild type mice: body weight, food and water intake, serum glucose, serum osteocalcin. Format: in vivo, mouse. On the procedure:
Six week-old male C57BL/6J wild type and ob/ob mice were obtained from Jackson Laboratories (Bar Harbor, Me., USA). The animals were housed individually polycarbonate cages fitted with stainless steel wire lids and air filters, and supported on ventilated racks (Thoren Caging Systems, Hazelton, Pa., USA) in the Albany Medical College Animal Resources Facility. The mice were maintained at a constant temperature (24° C.) with lights on from 07:00 to 19:00, and allowed food and water ad libitum for 6 days following arrival. During the test period, mice were fed ad libitum or calorie restricted to 60% of normal. Water intake was allowed ad libitum.
On day 1 of the study, and on each day thereafter, a water bottle containing 200 ml of water was added to each cage between 09:00 and 10:00 h. Mice fed ad libitum were given 200 g of pelleted rodent diet (Prolab Rat, Mouse, Hamster 3000, St. Louis, Mo.; 22% crude protein, 5% crude fat, 5% fiber, 6% ash, 2.5% additional minerals) between 09:00 and 10:00 h each day. The mice were weighed once daily between 09:00 and 10:00 h on an Acculab V-333 electronic balance (Cole-Parmer, Vernon Hills, Ill., USA). Calorie-restricted wild type and ob/ob mice received 60% of normal daily intake. Twenty four hours later, food and water remaining in the cages was measured to the nearest 0.1 g and 0.1 ml, respectively. To assure fasting glucose levels on days in which blood glucose was measured, food was removed from the cages between 09:00 and 10:00 h, and replaced immediately before the beginning of the dark cycle.
Mouse [D-Leu-4]OB3 was prepared commercially as a C-terminal amide by Bachem (Torrance, Calif., USA). The peptide was dissolved in 0.3% Intravail A3® (Aegis Therapeutics, San Diego, Calif. USA) reconstituted in water, and administered by gavage once daily for 10 days at a concentration of 1 mg/200 μl immediately before the start of the dark cycle. Is has previously been shown that this is the optimum concentration of mouse [D-Leu-4]-OB3 and its related bioactive peptide amides, for regulating energy expenditure, glucose levels, and insulin sensitivity in two genetically obese mouse models (see Rozhayskaya-Arena M. et al., Endocrinology 141:2501-2517 (2000); Grasso P. et al. Regulatory Pep. 101:123-129 (2001); Grasso P. et al., Diabetes 48:2204-2209 (1999), Grasso P. et al., Endocrinology 138:1413-1418 (1997); Grasso P. et al., Regulatory Peptides 85:93-100 (1999); and Grasso P. et al., Diabetes 48:2204-2209 (1999)). Vehicle injected control mice received 200 ul of Intravail A3® only.
Initial blood samples were drawn by snipping the end of the tail of each mouse at the beginning of the study (day 0); subsequent samples were obtained by gently removing the scab. Blood was taken 1 h before the onset of the dark period at the beginning of the study, and after 2, 4, 6, 8, and 10 days of treatment. The blood was applied to a test strip, and glucose levels were measured with a Glucometer Elite glucose meter (Bayer, Elkhart, Ind., USA).
At the end of the study, the mice were anesthetized with isoflurane (5%) and exsanguinated by cardiac puncture. Euthanasia was confirmed by cervical dislocation. The blood was collected in sterile nonheparinized plastic centrifuge tubes and allowed to stand at room temperature for 1 h. The clotted blood was rimmed from the walls of the tubes with sterile wooden applicator sticks. Individual serum samples were prepared by centrifugation for 30 min at 2600×g in an Eppendorf 5702R, A-4-38 rotor (Eppendorf North America, Westbury, N.Y., USA). The serum samples in each experimental group (n=6) were pooled and stored frozen until assayed for osteocalcin content.
Serum osteocalcin in the pooled samples was assayed in triplicate with a mouse osteocalcin ELISA kit obtained from Biomedical Technologies, Inc. (Stoughton, Mass., USA) according to the instructions supplied by the manufacturer. […]

Setting [1] is: 1 mg/day, 10 days, gavage in Intravail.

In the case of `CC(C)C[C@@H](NC(=O)[C@H](CO)NC(=O)[C@H](CS)NC(=O)[C@@H](N)CO)C(=O)N1CCC[C@H]1C(=O)N[C@@H](CCC(N)=O)C(=O)N[C@H](C(N)=O)[C@@H](C)O` [mouse [D-Leu-4]-OB3] (H-SCS[dL]PQT-NH2; N-terminus assumed), under setting [1], the “Body weight (% of initial)” value is on record as 95.6 ± 0.5 % of initial, the Final body weight was found to be 21.6 ± 0.7 g and the Serum osteocalcin came out at 246.6 ± 6.0 ng/mL. For the setting “10 days gavage”, the “daily food intake compared to Intravail treated controls” value is reported as “not associated with any significant difference in daily food intake”, the “serum glucose after treatment” value is “significantly (P<0.001) reduced”, the “serum osteocalcin levels compared to Intravail treated controls” value is “essentially the same; also recorded: slightly elevated” and the “water intake compared to Intravail treated controls” value is “essentially the same; also recorded: no significant difference in water intake”. For the same compound, the “loss of initial body weight” value (after 10 days gavage) turned out to be 4.4%. The Final serum glucose (after 10 days, 1 mg/day gavage in Intravail) stood at 124.5 ± 24.6 mg/dL. Besides, the Initial serum glucose (day 0) came out at 173.3 ± 7.3 mg/dL. Under “day 0, 1 mg/day, 10 days, gavage in Intravail”, the Initial body weight was determined as 22.6 ± 0.8 g. Under “oral delivery”, the “reduction of body weight gain” value worked out at 4.4%, the “reduction of food intake” value came out at 6.8% and the “reduction of serum glucose” value came to 28.2%.
